Assay results reported in US20060160777A1, “New use of GABAbeta receptor agonists” (priority 2004, published 2006).
Read-outs that look alike come from different tables or passages of the source.

Experiments:
[1] = Pharmacokinetics in female dogs after single intravenous and oral doses; assay type: in vivo, dog; conditions: for half-life / clearance / Vd: Beagle and Labrador; for Vd: read-out: Vss (volume of distribution at steady state); for F (oral availability): oral vs intravenous
Experimental: In the present studies dogs received single intravenous and oral doses of 3-APPiA, (2R)-(3-amino-2-fluoropropyl) phosphinic acid (A), (2S)-(3-amino-2-hydroxypropyl) phosphinic acid A), (3-amino-2-oxopropyl) phosphinic acid (C) and 3-amino-2-fluoropropyl) phosphinic acid (D) at therapeutic doses. The plasma concentrations of each compound was determined by LC-MS. The mean values of the total plasma clearance (CL), the half-life (TA), the volume of distribution at steady state (Vs), the oral availability (F), are summarised in Table 5.
Eight female Beagle and four Labrador dogs were used. The dogs were identified by a number tattooed in the ear. The animals had free access to water and were fed once a day (GLP diet) at approximately 1 p.m. On the experimental day, the dogs had not eaten since approximately 1 p.m. on the day before and were not allowed to eat until 6 hours after dosing.
The test formulations were administered intravenously in a superficial front leg vein (this vein was not used for blood sampling during 2 hours after dosing) or orally by gavage. The gavage tube was rinsed with about 20 mL of water and emptied with 20 mL of air before it was taken out. The oral and intravenous dose volumes were 1 and 0.5 mL/kg, respectively
Blood samples of about 2 mL were taken from a superficial front leg vein pre-dose and at 5, 10, 20, 40, 90 minutes, 3, 5, 8 and 24 hours after dosing. The blood samples were collected in heparinized glass tubes (Venoject®) and centrifuged (10 min, 3000 g, +4° C.). The plasma was then transferred to plastic tubes and stored at about −20° C. until analysis.
The pharmacokinetic parameters were calculated by non-compartment analysis using WinNonlin Professional (Pharsight Corporation, California, USA). The area under the plasma concentration-time curve (AUC(0-t)) was calculated using a combination of the linear and logarithmic trapezoidal rule from the time of administration to the sampling time with the last determinable plasma concentration (3, 5, 8 or 24 h). For the intravenous bolus dose, the concentration at time zero (C(0)) was estimated by log-linear regression of the first two concentration-time points. The AUC(0-t) was extrapolated to infinity by adding Ct/k. Ct was the predicted plasma concentration at the time of the last plasma sample with a determinable concentration and k was the apparent terminal rate constant. Ct and k were obtained by linear least-squares regression analysis of the logarithm of the last 3 to 5 plasma concentrations versus time. The apparent terminal half-life (t1/2) was calculated as In 2/k, wherein k is elimination constant, i.e. the slope of the decreasing curve.
The oral bioavailability (F) for each dog was calculated from individual AUC (area under the curve) and dose values. The calculation was made as follows: (AUCpo·Doseiv/AUCic·Dosepo)·100.
Estimates of total plasma clearance and of volume of distribution were calculated from plasma concentration data obtained after intravenous bolus injection. The total plasma clearance (CL) was calculated as Dosei.v./AUCi.v., and the volume of distribution at steady is state (Vss) was calculated as MRTi.v.·CL. The mean residence time after intravenous administration (MRTi.v.) was calculated as AUMC/AUC for bolus injection, wherein AUMC is the area under the first-moment versus time curve. The results are presented by descriptive statistics. The pharmacokinetic parameters are presented as geometric mean and range.

[2] = system: citric acid-induced cough in conscious guinea pigs; experiment: Citric acid-induced cough in conscious guinea pigs, GABAB agonists given subcutaneously; assay type: in vivo, guinea pig
Description: Citric acid-induced cough was evoked in conscious guinea pigs. Male Hartley guinea pigs (300-400 g) were placed in a chamber with a continuous flow of air. Positive and negative pressure changes within the chamber were used to monitor the expiratory and inspiratory phases of respiration. A nebuliser was connected in series with the air pump, allowing aerosol delivery of citric acid (0.1-1 M).
Cough was defined based on the visual appearance of the respiratory manoeuvre, the characteristic sound, and by a signature pressure trace typified by an expiratory effort that produced a positive chamber pressure 10-20 times higher than that associated with tidal breathing and proceeded by a rapid and pronounced inspiratory effort. All data were recorded digitally. The total number of coughs and the estimated concentration of citric acid evoking 1, 2 and 5 coughs were determined for each experiment.
(§1) Four treatment groups were employed in this study: Vehicle control, baclofen, (2R)-(3-amino-2-fluoropropyl) phosphinic acid and (3-aminopropyl) phosphinic acid (3-APPiA). […] […] To assess CNS depressant effects of these compounds, their effects on respiratory rate and respiratory pattern (inspiratory and expiratory times) were assessed and compared to control.

conscious guinea pigs = experiment: Effects of subcutaneously administered GABAB agonists on baseline respiratory rate in conscious guinea pigs; conditions: placebo 96.2 ± 3.8
Experimental: as §1
B. Effects of Subcutaneously Administered GABAB Agonists on Baseline Respiratory Rate in Conscious Guinea Pigs

[3] = 0.3 mg/kg s.c., 30 min before challenge, citric acid 0 M, mean ± spread
[4] = 0.3 mg/kg s.c., citric acid 0.01 M
[5] = 0.3 mg/kg s.c., citric acid 0.1 M
[6] = 0.3 mg/kg s.c., citric acid 0.3 M
[7] = 0.3 mg/kg s.c., citric acid 1 M
[8] = 3 mg/kg s.c., citric acid 0.01 M
[9] = 3 mg/kg s.c., citric acid 0.1 M
[10] = 3 mg/kg s.c., citric acid 0.3 M
[11] = dog, in vivo, female dogs, geometric mean, dose 2-7 μmol/kg per compound, read-out: T1/2 (half-life) (converted)
[12] = dog, in vivo, female dogs, intravenous bolus, geometric mean, dose 2-7 μmol/kg per compound, read-out: CL (total plasma clearance)
[13] = dog, in vivo, female dogs, intravenous bolus, geometric mean, dose 2-7 μmol/kg per compound
[14] = female dogs, geometric mean, dose 2-7 μmol/kg per compound

NC[C@@H](F)C[PH](=O)O [A, (2R)-(3-amino-2-fluoropropyl) phosphinic acid]
half-life ([1]; female, dog, in vivo): 7.5 h
clearance ([1]; female, dog, in vivo, iv): 2.1 mL/min/kg
Cumulative number of coughs evoked by citric acid [2, 3]: 0 ± 0
Cumulative number of coughs evoked by citric acid [2, 4]: 0 ± 0
Cumulative number of coughs evoked by citric acid [2, 5]: 3.4 ± 1.1
Cumulative number of coughs evoked by citric acid [2, 6]: 11.4 ± 1.3
Cumulative number of coughs evoked by citric acid [2, 7]: 27.6 ± 3.7
Cumulative number of coughs evoked by citric acid ([2]; 3 mg/kg s.c., citric acid 0 M): 0 ± 0
Cumulative number of coughs evoked by citric acid [2, 8]: 0.1 ± 0.1
Cumulative number of coughs evoked by citric acid [2, 9]: 1.9 ± 1.1
Cumulative number of coughs evoked by citric acid [2, 10]: 9.0 ± 3.8
Cumulative number of coughs evoked by citric acid ([2]; 3 mg/kg s.c., citric acid 1 M): 15.4 ± 3.6
Cumulative number of coughs evoked by citric acid ([2]; 10 mg/kg s.c., citric acid 0 M): 0 ± 0
Cumulative number of coughs evoked by citric acid ([2]; 10 mg/kg s.c., citric acid 0.01 M): 0 ± 0
Cumulative number of coughs evoked by citric acid ([2]; 10 mg/kg s.c., citric acid 0.1 M): 0.6 ± 0.3
Cumulative number of coughs evoked by citric acid ([2]; 10 mg/kg s.c., citric acid 0.3 M): 3.8 ± 1.3
Cumulative number of coughs evoked by citric acid ([2]; 10 mg/kg s.c., citric acid 1 M): 9.7 ± 1.9

NC[C@H](O)C[PH](=O)O [B, (2S)-(3-amino-2-hydroxypropyl) phosphinic acid]
half-life [1, 11]: 0.5 h
clearance [1, 12]: 6.67 mL/min/kg
Vd [1, 13]: 0.25 L/kg
F (oral availability) [1, 14]: 86%

NCC(CC(=O)O)c1ccc(Cl)cc1 (stereo not drawn) [Baclofen, 4-amino-3-(chlorophenyl)butanoic acid]
Cumulative number of coughs evoked by citric acid [2, 3]: 0 ± 0
Cumulative number of coughs evoked by citric acid [2, 4]: 1.0 ± 0
Cumulative number of coughs evoked by citric acid [2, 5]: 3.0 ± 0.6
Cumulative number of coughs evoked by citric acid [2, 6]: 12.3 ± 7.4
Cumulative number of coughs evoked by citric acid [2, 7]: 25.7 ± 4.8
Cumulative number of coughs evoked by citric acid ([2]; 3 mg/kg s.c., citric acid 0 M): 0 ± 0
Cumulative number of coughs evoked by citric acid [2, 8]: 0 ± 0
Cumulative number of coughs evoked by citric acid [2, 9]: 1.0 ± 0.5
Cumulative number of coughs evoked by citric acid [2, 10]: 6.0 ± 1.9
Cumulative number of coughs evoked by citric acid ([2]; 3 mg/kg s.c., citric acid 1 M): 14.3 ± 3.8
Baseline respiratory rate (result of study B, mean) (conscious guinea pigs; 0.3 mg/kg s.c.): 96.8 ± 8.5
Baseline respiratory rate (result of study B, mean) (conscious guinea pigs; 3 mg/kg s.c.): 78.1 ± 17.6

NCC(=O)C[PH](=O)O [C, (3-amino-2-oxopropyl) phosphinic acid]
half-life [1, 11]: 2.5 h
clearance [1, 12]: 8.2 mL/min/kg
Vd [1, 13]: 0.74 L/kg
F (oral availability) [1, 14]: 60%

NCCC[PH](=O)O [Compound 3-APPiA, (3-aminopropyl) phosphinic acid]
half-life [1, 11]: 0.52 h
clearance [1, 12]: 20 mL/min/kg
Vd [1, 13]: 0.55 L/kg
F (oral availability) [1, 14]: 10%
Cumulative number of coughs evoked by citric acid [2, 3]: 0 ± 0
Cumulative number of coughs evoked by citric acid [2, 4]: 0 ± 0
Cumulative number of coughs evoked by citric acid [2, 5]: 0.2 ± 0.2
Cumulative number of coughs evoked by citric acid [2, 6]: 7.8 ± 3.0
Cumulative number of coughs evoked by citric acid [2, 7]: 28.8 ± 2.9
Cumulative number of coughs evoked by citric acid ([2]; 3 mg/kg s.c., citric acid 0 M): 0 ± 0
Cumulative number of coughs evoked by citric acid [2, 8]: 0 ± 0
Cumulative number of coughs evoked by citric acid [2, 9]: 1.7 ± 0.9
Cumulative number of coughs evoked by citric acid [2, 10]: 3.9 ± 1.6
Cumulative number of coughs evoked by citric acid ([2]; 3 mg/kg s.c., citric acid 1 M): 16.1 ± 5.2
Baseline respiratory rate (result of study B, mean) (conscious guinea pigs; 0.3 mg/kg s.c.): 93.0 ± 5.6
Baseline respiratory rate (result of study B, mean) (conscious guinea pigs; 3 mg/kg s.c.): 97.9 ± 4.2

NCC(F)C[PH](=O)O (stereo not drawn) [D]
T1/2 (half-life) ([1]; dog, in vivo): 8.2 h
CL (total plasma clearance) ([1]; dog, in vivo, iv): 5.2 mL/min/kg
Vss (volume of distribution at steady state) ([1]; dog, in vivo, iv): 2.3 L/kg

CP(=O)(O)CCCN [SKF97541, (3-aminopropyl)methyl phosphinic acid]
Cumulative number of coughs evoked by citric acid [2, 3]: 0 ± 0
Cumulative number of coughs evoked by citric acid [2, 4]: 0 ± 0
Cumulative number of coughs evoked by citric acid [2, 5]: 0.4 ± 0.2
Cumulative number of coughs evoked by citric acid [2, 6]: 3.8 ± 1.6
Cumulative number of coughs evoked by citric acid [2, 7]: 19.2 ± 5.8
Baseline respiratory rate (result of study B, mean) (conscious guinea pigs; 0.1 mg/kg s.c.): 79.2 ± 16.5
Baseline respiratory rate (result of study B, mean) (conscious guinea pigs; 0.3 mg/kg s.c.): 68.6 ± 6.0
